Literature values, collected in patent US20210324434A1, “METHOD FOR PRODUCING RARE SUGAR-CONTAINING COMPOSITION AND RARE SUGAR-CONTAINING COMPOSITION” (NATIONAL UNIVERSITY CORPORATION KAGAWA UNIVERSITY, priority 2018, published 2021).

Tests used:
[1] = relative to sugar
[2] = already known

| Compound | sweetness intensity, % of that of sugar [1] | result of an acute oral toxicity test [2] |
| --- | --- | --- |
| O=C(CO)[C@@H](O)[C@H](O)[C@H](O)CO [D-fructose] | about 170% | – |
| O=C[C@H](O)[C@@H](O)[C@H](O)[C@H](O)CO [D-glucose] | about 70% | – |
| O=C(CO)[C@H](O)[C@H](O)[C@H](O)CO [D-psicose] | about 70% | ≥ 5,000 mg/kg |
